# Test results: patent US9051345B2, “Metalloinsertor complexes targeted to DNA mismatches” (CALIFORNIA INSTITUTE OF TECHNOLOGY, priority 2011, dated 2015)
# Peptide text beside a SMILES is read from it. * marks the point of attachment. Cbz = O=C(OCc1ccccc1)*; CH2F = FC*
# Key:
# HCT116O cells [1] = assay: MTT cytotoxicity assay; type: cell-based, human; details: for effect of PARP inhibitor on the selective MMR-dependent effects of the rhodium compound: with 20 μM [Rh(HDPA)2chrysi]^3+, HCT116N versus HCT116O
# Description: Cytotoxicity assays were performed as described in Mosmann, 1983, J. Immunol. Methods, 65, 55-63, the entire contents of which is incorporated herein by reference. HCT116N and HCT116O cells were plated in 96-well plates at 50,000 cells/well and incubated with rhodium for the durations specified. After incubation with the indicated rhodium complexes, cells were labeled with MTT for 4 hours at 37° C. under 5% CO2 and humidified atmosphere. The resulting formazan crystals were dissolved with solubilizing reagent purchased from Roche according to the manufacturer's instructions. The dissolved formazan was quantified as the absorbance at 570 nm minus the background absorbance at 690 nm. Percent viability was determined as the ratio of the amount of formazan in the treated cells to that of the untreated cells.
# In order to elucidate the mechanism of action for the cytotoxicity caused by a metalloinsertor complex of Formula I, the MTT cytotoxicity assay was repeated in the absence and presence of the pan-caspase inhibitor Z-VAD-FMK. This inhibitor works by irreversibly binding to the active site of caspases which participate in the apoptotic pathway. […] The HCT116N and HCT116O cell lines were treated with 0-30 μM of the [Rh(HDPA)2chrysi]^3+ complex for 24-72 hours. […]
# In order to determine the mechanism of action for cytotoxicity caused by a metalloinsertor complex of Formula I, the MTT cytotoxicity assay was repeated in conjunction with a panel of poly-ADP ribose polymerase (PARP) inhibitors: DPQ, 3-AB, 4-AN, and ABT-888, as described in Costantino et al., 2001, J. Med. Chem., 44, 3786-3794; Purnell et al., 1980, Biochem. J. 185, 775-777; Banasik et al., 1992, J. Biol. Chem. 267, 1569-1575; and Donawho et al., 2007, Clin. Cancer Res., 13, 2728-2737, the entire contents of all of which are incorporated herein by reference. The HCT116N and HCT116O cell lines were treated with 0 or 20 μM of the [Rh(HDPA)2chrysi]^3+ complex for 72 hours, with or without one of the four inhibitors. The inhibitor 3,4-Dihydro-5[4-(1-piperindinyl)butoxy]-1(2H)-isoquinoline (DPQ) was added to a final concentration of 0, 25, or 50 μM; the inhibitor 3-aminobenzamide (3-AB) was added to a final concentration of 0, 2, or 3 mM; the inhibitor 4-amino-1,8-napthalimide (4-AN) was added to a final concentration of 0, 10, or 20 μM; and the inhibitor 2-((R)-2-Methylpyrrolidin-2-yl)-1H-benzimidazole-4-carboxamide (ABT-888) was added to a final concentration of 0, 5, or 10 μM. […] For example, in the case of the compound DPQ, this difference was 43±2.7% without inhibitor and 0.6±3.0% with inhibitor.
# HCT116O cells [2] = details: HCT116N and HCT116O; called known; cited from earlier work
# HCT116O cells [3] = assay: ICP-MS assay, nuclear and mitochondrial rhodium accumulation; type: cell-based, human; details: 10 uM, 24 h, comparison in words
# Description: To assay the subcellular localization of the rhodium complexes, an inductively coupled plasma mass spectrometry (ICP-MS) assay was used to quantify the uptake of the complexes in both whole cell extracts and nuclear and mitochondrial fractions.
# Mitochondrial Rhodium Accumulation. With reference to FIG. 31B, HCT116O cells were plated in 75 cm^2 culture flasks at 2.0×10^7 cells/plate and incubated at 37° C., 5% CO2 for 24 h. Rhodium was added to 10 uM and cells were grown for an additional 24 h. The cells were then harvested by trypsinization and centrifuged for 5 min at 1,200 rpm. The supernatants were decanted, and the cell pellets were resuspended in 1 ml cold PBS (pH 7.2). The cells were centrifuged again for 5 min at 1,200 rpm. The supernatants were discarded, and the resultant pellets were resuspended in 0.5 ml mitochondrial extraction buffer (200 mM mannitol, 68 mM sucrose, 50 mM Pipes, 50 mM KCl, 5 mM EGTA, 2 mM MgCl2; 1 mM DTT and protease inhibitors were added right before use). The samples were incubated on ice for 20 min, and the suspensions were homogenized via passage through a needle and syringe (35×). The homogenized cells were then centrifuged for 5 min at 750 rpm. The supernatants were collected and spun again at 14,000 g for 10 min. The supernatants were decanted, and the resulting mitochondrial pellet was suspended in 0.8 ml H2O via probe sonication. […]
Compound,"effect of PARP inhibitor on the selective MMR-dependent effects of the rhodium compound (HCT116O cells [1]; MTT, 72 hours)","selective cytotoxicity, MMR-deficient HCT116O versus MMR-proficient HCT116N cells (HCT116O cells [1])",also measured
"Nc1ccc2c3c(cccc13)C(=O)NC2=O [4-AN, 4-amino-1,8-napthalimide, reference compound]",completely abolished the selective MMR-dependent effects,,
[Rh(bpy)2chrysi]^3+,,,cytotoxicity (known property) (HCT116O cells [2]): non-toxic
"COC(=O)C[C@H](NC(=O)[C@H](C)NC(=O)[C@@H](NC(=O)OCc1ccccc1)C(C)C)C(=O)CF [Z-VAD-FMK, reference compound] (Cbz-Val-Ala-Asp(OMe)-CH2F)",,,"protection from rhodium by the caspase inhibitor at 20 M (so in the source) (HCT116O cells [1]; MTT, HCT116N and HCT116O, with [Rh(HDPA)2chrysi]^3+): no protection from rhodium; protection from rhodium by the caspase inhibitor at 40 μM (HCT116O cells [1]; MTT, HCT116O, with [Rh(HDPA)2chrysi]^3+): some protection from rhodium"
[Rh(chrysi)(phen)(DPE)]Cl3 [[Rh(chrysi)(phen)(DPE)]^2+],,selective cytotoxicities towards the MMR-deficient HCT116O cells,
"O=C1NCCc2c(OCCCCN3CCCCC3)cccc21 [DPQ, 3,4-Dihydro-5[4-(1-piperindinyl)butoxy]-1(2H)-isoquinoline, reference compound]",completely abolished the selective MMR-dependent effects,,
[Rh(DPAE)2chrysi]^3+,,increased cytotoxicity to the MMR-deficient HCT116O cells,share of cellular rhodium complex that is nuclear (HCT116O cells [3]): greater percentage; incubation time at which cell selective activity is exhibited (HCT116O cells [1]; HCT116O versus HCT116N): ≤ 6 h
[Rh(MeDPA)2chrysi]Cl3 [[Rh(MeDPA)2chrysi]^3+],,differential toxicity against the HCT116O cell line comparable to that of [Rh(HDPA)2chrysi]^3+,"toxicity in MMR-deficient HCT116O versus HCT116N cells at 48 hours (HCT116O cells [1]; MTT, 48 hours): enhance toxicity in the MMR-deficient HCT116O cells"
[Rh(NH3)4phzi]Cl3 [[Rh(NH3)4phzi]^3+],,selective cytotoxicities towards the MMR-deficient HCT116O cells,
"NC(=O)c1cccc(N)c1 [3-AB, 3-aminobenzamide, reference compound]",completely abolished the selective MMR-dependent effects,,
"C[C@]1(c2nc3c(C(N)=O)cccc3[nH]2)CCCN1 [ABT-888, 2-((R)-2-Methylpyrrolidin-2-yl)-1H-benzimidazole-4-carboxamide, reference compound]",completely abolished the selective MMR-dependent effects,,
[Rh(chrysi)(phen)(PPE)]^2+,,selective cytotoxicities towards the MMR-deficient HCT116O cells,
[Rh(PrDPA)2chrysi]^3+,,,"mitochondrial rhodium content (HCT116O cells [3]): greater than that of cells incubated with [Rh(DPAE)2(chrysi)]^3+; selectivity of inhibitory effects after 72 hours (HCT116O cells [1]; MTT, HCT116N and HCT116O, 72 hours): non-selective inhibitory effects"
[Rh(chrysi)(phen)(PyPrO)]^2+,,selective cytotoxicities towards the MMR-deficient HCT116O cells,
